Measured values published in patent publication US20250332183A1, “COMPOSITIONS AND METHODS FOR THE STIMULATION OF INTERMEDIATE MACROPHAGES AND TREATMENTS THEREWITH” (priority 2024, published 2025).
“Also recorded” adds a separate entry of the source.

What was measured:
[1] = test system: preterm lamb model of BPD; test: Respiratory gas exchange / oxygenation and ventilation indices in ventilated preterm lambs; type: in vivo
Method: For dose-optimization, preterm (PT) lambs were delivered at ˜128d (d; saccular stage of lung development; ˜85% gestation) after maternal antenatal steroids exposure. […] After delivery and surfactant administration, PT lambs were maintained on invasive mechanical ventilation (IMV) for 7d followed by 3d noninvasive respiratory support. For the early-stage study, outcomes were determined for PT lambs over DOL1-10. For the late-stage study, outcomes were determined for former preterm (FPT) lambs (vehicle, AVR-48 treated) that were weaned from respiratory support after 10d and were maintained in the lamb intensive care unit for a further 80d. Outcomes included functional, structural, molecular, and neurobehavioral assessments. Term reference lambs that were never ventilated were used as developmental references for the FPT lambs.
Arterial blood gases were obtained starting at 15 min of postnatal life and taken every 15 min for the first 90 min of postnatal life. FiO2 was decreased to attain a target oxygenation of O2 saturation 88-94% by pulse oximetry (Model SurgiVet V9200IBP/Temp, Smith Medical ASD, Inc., St. Paul, MN). PIP was adjusted to attain a target PaCO2 between 45 and 60 mmHg. The resultant pH range was between 7.25-7.35.
Study design. A randomized, blinded, placebo-controlled study design was used for both endpoints. For each endpoint study, one group of PT lambs was treated with vehicle (saline, intravenously, iv, over about 10 min) for 7d and thus served as control. Another group of PT lambs was treated iv with AVR-48 for 7d. Either treatment was started at 6 h of postnatal life to allow the PT lambs to stabilize after Cesarean-section delivery and resuscitation physiologically and to permit initiation of ventilator-induced lung injury. The inventors relied on visual identification of biological sex at the time of delivery in the absence of an ultrasound unit in the lamb intensive care unit. The inventors tracked sex as a biological variable, but the study could not assess differences in outcomes based on sex because of small sample sizes.

[2] = test system: preterm lamb model of BPD; test: Lung histopathology and quantitative histology of lamb lungs; type: in vivo; conditions: for radial alveolar count (RAC) / distal airspace wall thickness / secondary septal volume density: vs vehicle
Method: Terminal tissue collection. The inventors followed the methods the developed for terminal tissue collection.^14,17,26-28 Briefly, at the end of the early-stage study (DOL10) or late-stage study (DOL90 for FPT lambs; DOL60 for term reference lambs), the lambs were given ketamine (10-20 mg/Kg, intramuscularly) followed by face mask inhalation anesthesia with 1.0-2.5% isoflurane with O2. Lambs were intubated and ventilated with a tidal volume of 5-7 mL/kg, and given heparin (1000 U, iv). The lambs were given Beuthanasia solution (0.25 mL/Kg, iv; Intervet Inc., Madison, NJ) followed by potassium chloride (10 mEq, iv; Hospira, Lake Forest, IL).
For morphological analyses, the entire left lung was insufflated with formalin and sampled by systematic, uniform, random methods for quantitative histology.^29 Morphometric and stereologic methods quantified radial alveolar count, secondary septal volume density, and thickness of distal airspace walls.^27 Alveolar capillary growth was quantified by a combination of immunohistochemistry to identify endothelial cells in lung tissue sections and quantitative histology.^27 For capillary surface density measurement, a recombinant anti-CD-34 antibody was used (ab81289, Abcam; Waltham, MA) for the capillary endothelial cell marker. Negative immunostain controls were omission of the primary antibody, omission of the secondary antibody, and substitution of the primary antibody with a species-matched, irrelevant antibody. Epithelium lining the air spaces was counterstained blue. The inventors used a computer-assisted true-color imaging system (Bioquant Life Science, Nashville, TN) to quantify the surface density of alveolar capillaries and the overlying epithelium.

[3] = early-stage study DOL 1-7, vs vehicle
[4] = early-stage study, PT lambs, 3.0 mg/kg, vs vehicle

SMILES: CC(=O)NC1C(Oc2ccc([N+](=O)[O-])cc2)OC(CO)C(O)C1O (stereo not drawn) [AVR-48]
- BPD-like symptoms ([1]; 10d period, dose escalation 0.1-9.0 mg/kg/dose): diminished in a dose-related manner
- respiratory severity score (RSS) ([1]; early-stage pilot, PT lambs, 1.0 mg/kg iv every 12 h): improved moderately
- FiO2 and PaO2 [1, 3]: No statistical difference
- PIP and PaCO2 [1, 3]: No statistical difference
- respiratory severity score (RSS) ([1]; early-stage study, PT lambs, 3.0 mg/kg iv every 12 h, vs vehicle, 3 mg/kg): Significant improvements; also recorded: significantly improved
- Alveolar-arterial (A-a) gradient [1, 4]: significantly improved
- SpO2/FiO2 (SF) ratio [1, 4]: significantly improved
- oxygenation index [1, 4]: significantly improved
- radial alveolar count (RAC) ([2]; 10d, PT lambs, 3.0 mg/kg): significant increase
- distal airspace wall thickness ([2]; 10d, PT lambs): significantly thinner
- secondary septal volume density ([2]; 10d, PT lambs): significantly higher
- radial alveolar count (RAC) ([2]; 90d, FPT lambs, 3.0 mg/kg): significant increase
- distal airspace wall thickness ([2]; 90d, FPT lambs): thinner (but not statistically different)
- secondary septal volume density ([2]; 90d, FPT lambs): higher in the AVR-48 lambs (but not statistically different)
- development of terminal respiratory units (TRUs) ([2]; early-stage and late-stage studies, 3.0 mg/kg): significantly better development
